From US20100273814A1, “((PHENYL)IMIDAZOLYL)METHYLHETEROARYL COMPOUNDS” (priority 2007, published 2010)
Like-named read-outs stand apart in the source and are kept apart here.

Tests used:
Format in all cases: cell-based
[1] = target: T1, alpha2B receptor (Homo sapiens, UniProt P18089); experiment: Receptor Selection and Amplification Technology (RSAT) assay, alpha2B; details: for Alpha 2B intrinsic activity (efficacy): ratio of maximal effect to that of standard full agonist brimonidine (UK14304), value in brackets
T1 construct: expressed in transfected cells; host or cells: NIH-3T3 cells
T1 sequence (P18089 1-450): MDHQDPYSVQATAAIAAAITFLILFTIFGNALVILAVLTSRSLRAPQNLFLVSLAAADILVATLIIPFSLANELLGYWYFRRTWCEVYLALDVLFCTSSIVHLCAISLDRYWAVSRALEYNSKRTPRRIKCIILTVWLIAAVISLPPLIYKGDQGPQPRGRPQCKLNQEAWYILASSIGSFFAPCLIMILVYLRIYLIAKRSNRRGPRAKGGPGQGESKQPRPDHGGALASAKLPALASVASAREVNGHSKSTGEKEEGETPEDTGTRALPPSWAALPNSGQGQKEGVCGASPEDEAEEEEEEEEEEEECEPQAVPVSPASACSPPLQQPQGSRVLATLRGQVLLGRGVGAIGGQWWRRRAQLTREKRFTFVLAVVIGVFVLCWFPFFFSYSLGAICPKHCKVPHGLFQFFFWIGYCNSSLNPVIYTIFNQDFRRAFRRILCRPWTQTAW
Description: (§1) Receptor Selection and Amplification Technology (RSAT) Assay
(§2) The RSAT assay measures a receptor-mediated loss of contact inhibition that results in selective proliferation of receptor-containing cells in a mixed population of confluent cells. The increase in cell number is assessed with an appropriate transfected marker gene such as β-galactosidase, the activity of which can be easily measured in a 96-well format. Receptors that activate the G protein, Gq, elicit this response. Alpha2 receptors, which normally couple to Gi, activate the RSAT response when coexpressed with a hybrid Gq protein that has a Gi receptor recognition domain, called Gq/i5.
(§3) NIH-3T3 cells are plated at a density of 2×10^6 cells in 15 cm dishes and maintained in Dulbecco's modified Eagle's medium supplemented with 10% calf serum. One day later, cells are cotransfected by calcium phosphate precipitation with mammalian expression plasmids encoding p-SV-β-galactosidase (5-10 μg), receptor (1-2 μg) and G protein (1-2 μg). 40 μg salmon sperm DNA may also be included in the transfection mixture. Fresh media is added on the following day and 1-2 days later, cells are harvested and frozen in 50 assay aliquots. Cells are thawed and […] added to 100 aliquots of various concentrations of drugs in triplicate in 96-well dishes. Incubations continue 72-96 hr at 37° C. After washing with phosphate-buffered saline, β-galactosidase enzyme activity is determined by adding 200 μl of the chromogenic substrate (consisting of 3.5 mM o-nitrophenyl-β-D-galactopyranoside and 0.5% nonidet P-40 in phosphate buffered saline), incubating overnight at 30° C. and measuring optical density at 420 nm. The absorbance is a measure of enzyme activity, which depends on cell number and reflects a receptor-mediated cell proliferation. The efficacy or intrinsic activity is calculated as a ratio of the maximal effect of the drug to the maximal effect of a standard full agonist for each receptor subtype. Brimonidine, also called UK14304, the chemical structure of which is shown below, is used as the standard agonist for the alpha2A, alpha2B and alpha2C receptors. The EC50 is the concentration at which the drug effect is half of its maximal effect.
(§4) EC50 values are nanomolar. ND stands for “not determinable” at concentrations less than 10 micromolar. IA stands for “intrinsic activity.”

[2] = target: T2, alpha2A receptor (Homo sapiens, UniProt P08913); experiment: Receptor Selection and Amplification Technology (RSAT) assay, alpha2A; details: for Alpha 2A intrinsic activity (efficacy): ratio of maximal effect to that of standard full agonist brimonidine (UK14304), value in brackets
T2 construct: expressed in transfected cells; host or cells: NIH-3T3 cells
T2 sequence (P08913 1-465): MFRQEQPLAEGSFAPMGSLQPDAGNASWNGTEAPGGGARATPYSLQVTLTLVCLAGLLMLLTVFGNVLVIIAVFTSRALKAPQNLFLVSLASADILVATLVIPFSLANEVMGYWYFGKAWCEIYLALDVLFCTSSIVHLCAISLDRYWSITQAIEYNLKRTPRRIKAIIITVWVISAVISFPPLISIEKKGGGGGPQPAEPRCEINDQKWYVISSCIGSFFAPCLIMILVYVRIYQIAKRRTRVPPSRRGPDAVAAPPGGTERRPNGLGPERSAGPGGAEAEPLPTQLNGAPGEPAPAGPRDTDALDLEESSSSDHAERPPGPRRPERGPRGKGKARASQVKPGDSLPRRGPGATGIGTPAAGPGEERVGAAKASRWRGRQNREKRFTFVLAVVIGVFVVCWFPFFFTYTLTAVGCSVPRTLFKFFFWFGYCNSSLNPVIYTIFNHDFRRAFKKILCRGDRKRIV
Description: as §1, §2, §3, §4

[3] = target: T3, alpha2C receptor (Homo sapiens, UniProt P18825); experiment: Receptor Selection and Amplification Technology (RSAT) assay, alpha2C; details: for Alpha 2C intrinsic activity (efficacy): ratio of maximal effect to that of standard full agonist brimonidine (UK14304), value in brackets
T3 construct: expressed in transfected cells; host or cells: NIH-3T3 cells
T3 sequence (P18825 1-462): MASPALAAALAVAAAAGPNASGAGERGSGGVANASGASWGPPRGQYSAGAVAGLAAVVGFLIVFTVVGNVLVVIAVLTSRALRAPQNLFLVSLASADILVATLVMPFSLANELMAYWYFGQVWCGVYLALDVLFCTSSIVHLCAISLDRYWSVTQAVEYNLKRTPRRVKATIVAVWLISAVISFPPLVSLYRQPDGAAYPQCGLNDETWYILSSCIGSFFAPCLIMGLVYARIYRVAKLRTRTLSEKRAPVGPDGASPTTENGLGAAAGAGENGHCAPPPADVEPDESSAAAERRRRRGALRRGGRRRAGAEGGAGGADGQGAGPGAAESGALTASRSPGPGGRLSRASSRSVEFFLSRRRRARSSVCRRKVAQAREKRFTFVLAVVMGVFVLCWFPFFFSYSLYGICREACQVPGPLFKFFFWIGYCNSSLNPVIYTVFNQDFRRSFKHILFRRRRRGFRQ
Description: as §1, §2, §3, §4

[4] = RSAT, transfected NIH-3T3 cells, value outside brackets, read-out: Alpha 2B EC50 (potency)
[5] = RSAT, transfected NIH-3T3 cells, value outside brackets, read-out: Alpha 2A EC50 (potency)
[6] = RSAT, transfected NIH-3T3 cells, value outside brackets, read-out: Alpha 2C EC50 (potency)

SMILES	EC50 [1, 4] [nM]	Alpha 2B intrinsic activity (efficacy) ([1]; RSAT)	EC50 [2, 5] [nM]	Alpha 2A intrinsic activity (efficacy) ([2]; RSAT)	EC50 [3, 6] [nM]	Alpha 2C intrinsic activity (efficacy) ([3]; RSAT)	EC50 [1] [nM]	EC50 [2] [nM]	EC50 [3] [nM]
Cc1ccccc1C(c1ccncc1)c1c[nH]cn1 (stereo not drawn) [4-((2-methylphenyl)(1H-imidazol-5-yl)methyl)pyridine]	63	0.82	> 10000	0.06	265	1.08	–	–	–
Clc1cccc(C(c2ccccn2)c2c[nH]cn2)c1Cl (stereo not drawn) [2-((2,3-dichlorophenyl)(1H-imidazol-5-yl)methyl)pyridine]	–	.85	–	0.21	–	0.39	8.7	> 10000	784
Cc1c(F)cccc1C(c1ccccn1)c1c[nH]cn1 (stereo not drawn) [2-((3-fluoro-2-methylphenyl)(1H-imidazol-5-yl)methyl)pyridine]	36	1.07	> 10000	0.04	440	0.38	–	–	–
Fc1c(Cl)cccc1C(c1ccncc1)c1cnc[nH]1 (stereo not drawn) [4-((3-chloro-2-fluorophenyl)(1H-imidazol-5-yl)methyl)pyridine]	40	1.02	> 10000	0.09	340	0.60	–	–	–
Cc1cccc(C(c2ccncc2)c2c[nH]cn2)c1C (stereo not drawn) [4-((2,3-dimethylphenyl)(1H-imidazol-5-yl)methyl)pyridine]	4.4	1.07	1510	0.32	605	0.49	–	–	–
Fc1c(Cl)cccc1C(c1ccccn1)c1cnc[nH]1 (stereo not drawn) [2-((3-chloro-2-fluorophenyl)(1H-imidazol-5-yl)methyl)pyridine]	32	1.21	> 10000	0.07	177	0.49	–	–	–
Fc1cccc(C(c2ccncc2)c2c[nH]cn2)c1F (stereo not drawn) [4-((2,3-difluorophenyl)(1H-imidazol-5-yl)methyl)pyridine]	837	0.70	> 10000	0.01	2490	1.02	–	–	–
Cc1c(Cl)cccc1C(c1ccncc1)c1c[nH]cn1 (stereo not drawn) [4-((3-chloro-2-methylphenyl)(1H-imidazol-5-yl)methyl)pyridine]	10.3	1.10	> 10000	0.11	83	0.46	–	–	–
Fc1cccc(C(c2ccccn2)c2c[nH]cn2)c1F (stereo not drawn) [2-((2,3-difluorophenyl)(1H-imidazol-5-yl)methyl)pyridine]	405	1.08	> 10000	0.05	> 10000	0.16	–	–	–
Fc1c(Cl)cccc1C(c1cccnc1)c1cnc[nH]1 (stereo not drawn) [3-((3-chloro-2-fluorophenyl)(1H-imidazol-5-yl)methyl)pyridine]	5.2	1.34	> 10000	0.28	64	0.55	–	–	–
c1ccc(C(c2cccnc2)c2c[nH]cn2)cc1 (stereo not drawn) [3-((phenyl)(1H-imidazol-5-yl)methyl)pyridine]	190	0.72	> 10000	0.11	> 10000	0.16	–	–	–
Cc1c(Cl)cccc1C(c1ccccn1)c1c[nH]cn1 (stereo not drawn)	7.8	1.39	> 10000	0.12	495	0.53	–	–	–
Fc1c(C(c2ccncc2)c2c[nH]cn2)cccc1C(F)(F)F (stereo not drawn) [4-((2-fluoro-3-(trifluoromethyl)phenyl)(1H-imidazol-5-yl)methyl)pyridine]	45	1.29	> 10000	0.14	> 10000	0.29	–	–	–
Cc1c(F)cccc1C(c1ccncc1)c1c[nH]cn1 (stereo not drawn) [4-((3-fluoro-2-methylphenyl)(1H-imidazol-5-yl)methyl)pyridine]	72	1.17	> 10000	0.03	> 10000	0.27	–	–	–
Fc1c(C(c2cccnc2)c2c[nH]cn2)cccc1C(F)(F)F (stereo not drawn) [3-((2-fluoro-3-(trifluoromethyl)phenyl)(1H-imidazol-5-yl)methyl)pyridine]	5.2	1.24	> 10000	0.23	32	0.42	–	–	–
Cc1ccccc1C(c1ccccn1)c1c[nH]cn1 (stereo not drawn) [2-((2-methylphenyl)(1H-imidazol-5-yl)methyl)pyridine]	177	0.92	> 10000	0.03	213	0.57	–	–	–
Fc1ccccc1C(c1ccccn1)c1c[nH]cn1 (stereo not drawn) [2-((2-fluorophenyl)(1H-imidazol-5-yl)methyl)pyridine]	993	0.56	> 10000	0.04	2080	0.43	–	–	–
Cc1cccc(C(c2cccnc2)c2c[nH]cn2)c1C (stereo not drawn) [3-((2,3-dimethylphenyl)(1H-imidazol-5-yl)methyl)pyridine]	0.33	1.25	> 10000	0.19	14	0.55	–	–	–
